In patent US20160160232A1, “ALS INHIBITOR HERBICIDE TOLERANT MUTANT PLANTS” (priority 2013, published 2016):

Legend:
[1] = system: wild-type (WT) oilseed rape; assay: Further field trial, phytotoxicity (Table 3); assay type: in vivo, Brassica napus; conditions: g ai/ha: IMAZAMOX 40, BISPYRIBAC-SODIUM 50, PROPOXYCARBAZONE-SODIUM 70, MESOSULFURON-METHYL 60, PYROXSULAM 12.5 with CLOQUINTOCET-MEXYL 37.5, each with RAPESEED OIL METHYLATED 366.5
Description: (§1) In a further field trial, seeds of spring oilseed rape comprising HETO133 and HETO134, and wild type (WT) seeds were sown in a field. For the untreated plants, biomass was determined at 9, 16 and 24 days after application (DAA) as compared to a control variety. For the treated plants, phytotoxicity was assessed at 9, 16 and 24 days after application (DAA) according to a scale from 0 to 100%. For both wild-type and HETO133-HETO134, no thinning was observed.

[2] = system: oilseed rape homozygous for HETO133 and HETO134; assay: Further field trial, phytotoxicity (Table 3); assay type: in vivo, Brassica napus; conditions: g ai/ha: IMAZAMOX 40, BISPYRIBAC-SODIUM 50, PROPOXYCARBAZONE-SODIUM 70, MESOSULFURON-METHYL 60, PYROXSULAM 12.5 with CLOQUINTOCET-MEXYL 37.5, each with RAPESEED OIL METHYLATED 366.5
Description: as §1

[3] = system: oilseed rape homozygous for HETO133 and HETO134; assay: Field trial, visible phytotoxicity (Table 2); assay type: in vivo, Brassica napus; conditions: applied at BBCH 14, 200 L/ha water, g ai/ha: Foramsulfuron 25, TCM 15, Iodosulfuron 7, Mesosulfuron 60, Amidosulfuron 30, Ethoxysulfuron 60, Imazamox 40, Metosulam 30, Bispyribac 50, Nicosulfuron 60, Metsulfuron 8, Propoxycarbazone 70, Pyroxsulam 50, Tribenuron 30, Rimsulfuron 12.5, Flucarbazone 40, Thifensulfuron 7.5
Source text: (§2) Seeds of spring oilseed rape homozygous for HETO133 and HETO134 were sown in a field according to typical practical agricultural methods. The registered spring oilseed rape variety ABILITY, the wild-type segregant (WTS), and plants comprising a P197S mutation on ALS I and a W574L mutation on ALS III (P197S-W574L) served as a comparison. All plants were cultivated up to BBCH stage 14 (four true leaves of the oilseed rape plants). Afterwards, the herbicides mentioned in table 2 have been applied to the oilseed rape plants by using specific spray equipment for small plot applications. The water amount used was 200 L/ha.

[4] = system: oilseed rape comprising a P197S mutation on ALS I and a W574L mutation on ALS III (P197S-W574L); assay: Field trial, visible phytotoxicity (Table 2); assay type: in vivo, Brassica napus; conditions: applied at BBCH 14, 200 L/ha water, g ai/ha: Foramsulfuron 25, TCM 15, Iodosulfuron 7, Mesosulfuron 60, Amidosulfuron 30, Ethoxysulfuron 60, Imazamox 40, Metosulam 30, Bispyribac 50, Nicosulfuron 60, Metsulfuron 8, Propoxycarbazone 70, Pyroxsulam 50, Tribenuron 30, Rimsulfuron 12.5, Flucarbazone 40, Thifensulfuron 7.5
Source text: as §2

[5] = system: spring oilseed rape variety ABILITY; assay: Field trial, visible phytotoxicity (Table 2); assay type: in vivo, Brassica napus; conditions: applied at BBCH 14, 200 L/ha water, g ai/ha: Foramsulfuron 25, TCM 15, Iodosulfuron 7, Mesosulfuron 60, Amidosulfuron 30, Ethoxysulfuron 60, Imazamox 40, Metosulam 30, Bispyribac 50, Nicosulfuron 60, Metsulfuron 8, Propoxycarbazone 70, Pyroxsulam 50, Tribenuron 30, Rimsulfuron 12.5, Flucarbazone 40, Thifensulfuron 7.5
Source text: as §2

[6] = system: wild-type segregant (WTS) oilseed rape; assay: Field trial, visible phytotoxicity (Table 2); assay type: in vivo, Brassica napus; conditions: applied at BBCH 14, 200 L/ha water, g ai/ha: Foramsulfuron 25, TCM 15, Iodosulfuron 7, Mesosulfuron 60, Amidosulfuron 30, Ethoxysulfuron 60, Imazamox 40, Metosulam 30, Bispyribac 50, Nicosulfuron 60, Metsulfuron 8, Propoxycarbazone 70, Pyroxsulam 50, Tribenuron 30, Rimsulfuron 12.5, Flucarbazone 40, Thifensulfuron 7.5
Source text: as §2

[7] = system: Hypocotyl derived callus (WT tissues); assay: Callus selection on Foramsulfuron containing medium; assay type: cell-based, Brassica napus
Description: Five day old seedlings were used for the preparation of hypocotyl segments 7-10 mm in length. Hypocotyl segments were transferred to 14 cm Petri plates containing 75 ml of M-338 [H76] callus induction medium (25 explants/plate). M-338 [H76] medium is MS salts and vitamins (Murashige and Skoog, 1962), 20 g/l sucrose, 0.5 g/l MES, 0.5 g/l adenine sulphate, 5 mg/l silver nitrate, 0.5 mg/l 2,4-D, 0.2 mg/l kinetin and solidified with 5.5 g/l agarose (pH 5.7). Dishes were sealed and cultured at 24° C. with standard light conditions (16 h/day). After 3 weeks, calli developing at the ends of the explants were transferred to fresh M-338 [H76] plates (25 calli/plate). Calli were subcultured to fresh medium every 3 weeks (larger calli cut into two pieces).
Hypocotyl derived callus (9 weeks old) was used for the selection of herbicide resistant mutants. Small pieces of callus were plated on M-338 [H76] medium containing 25 nM of the ALS inhibitor Foramsulfuron (CAS RN 173159-57-4). […] Dishes were cultured at 24° C. with standard light conditions (16 h/day). After 3 weeks, the calli were divided into 2 pieces each and replated on M-338 [H76] medium containing 50 nM Foramsulfuron. […]

SMILES	Percentage phytotoxicity WT 9 DAA [1]	Percentage phytotoxicity WT 16 DAA [1]	Percentage phytotoxicity WT 24 DAA [1]	Percentage phytotoxicity HETO133-HETO134 9 DAA [2]	Percentage phytotoxicity HETO133-HETO134 16 DAA [2]	Percentage phytotoxicity HETO133-HETO134 24 DAA [2]	Percentage phytotoxicity HETO133-HETO134 7 DAA [3]	Percentage phytotoxicity HETO133-HETO134 14 DAA [3]	Percentage phytotoxicity HETO133-HETO134 23 DAA [3]	Percentage phytotoxicity P197S-W574L 7 DAA [4]	Percentage phytotoxicity P197S-W574L 14 DAA [4]	Percentage phytotoxicity P197S-W574L 23 DAA [4]	Percentage phytotoxicity ABILITY 7 DAA [5]	Percentage phytotoxicity standard 14 DAA [5]	Percentage phytotoxicity standard 23 DAA [5]	Percentage phytotoxicity WTS 7 DAA [6]	Percentage phytotoxicity WTS 14 DAA [6]	Percentage phytotoxicity WTS 23 DAA [6]	effect on callus growth ([7]; 25 nM Foramsulfuron in M-338 [H76] medium, starting concentration)	effect on WT tissues ([7]; 250 nM Foramsulfuron in M-338 [H76] medium)
COc1cc(OC)nc(Oc2cccc(Oc3nc(OC)cc(OC)n3)c2C(=O)O)n1 [Bispyribac, bispyribac-sodium]	76.7%	98.3%	100%	56.7%	88.3%	92.7%														
COc1nn(C(=O)[N-]S(=O)(=O)c2ccccc2OC(F)(F)F)c(=O)n1C.[Na+] [Flucarbazone, flucarbazone-sodium]							0%	0%	0%	10%	6%	10%	85%	98%	99%	85%	98%	99%		
COc1cc(OC)nc(NC(=O)NS(=O)(=O)c2cc(NC=O)ccc2C(=O)N(C)C)n1 [Foramsulfuron, foramsulfuron]																			partially inhibitory to callus growth but not lethal	clearly inhibitory to WT tissues
COCc1cnc(C2=NC(C)(C(C)C)C(=O)N2)c(C(=O)O)c1 (centres unmarked) [Imazamox, imazamox]	73.3%	98%	99%	6.7%	10%	0%														
COC(=O)c1ccc(CNS(C)(=O)=O)cc1S(=O)(=O)NC(=O)Nc1nc(OC)cc(OC)n1 [Mesosulfuron, mesosulfuron-methyl]	76.7%	98%	96%	11.7%	13.3%	3.3%	33%	38%	35%	40%	40%	45%	85%	98%	99%	85%	98%	99%		
COC(=O)c1ccccc1S(=O)(=O)NC(=O)Nc1nc(C)nc(OC)n1 [Metsulfuron, metsulfuron-methyl]							50%	63%	78%	45%	50%	62%	86%	98%	99%	86%	98%	99%		
CCCOc1nn(C(=O)[N-]S(=O)(=O)c2ccccc2C(=O)OC)c(=O)n1C.[Na+] [Propoxycarbazone, propoxycarbazone-sodium]	76.7%	97%	97.7%	53.3%	82.7%	76.7%	57%	72%	83%	47%	52%	47%	86%	98%	99%	86%	98%	99%		
COc1cc(OC)n2nc(NS(=O)(=O)c3c(C(F)(F)F)ccnc3OC)nc2n1 [Pyroxsulam, pyroxsulam]	76.7%	98%	98%	13.3%	17%	15%	0%	0%	5%	15%	16%	18%	83%	98%	99%	83%	98%	99%		
COC(=O)c1csc(C)c1S(=O)(=O)NC(=O)n1nc(OC)n(C)c1=O [TCM, thiencarbazone-methyl]							0%	0%	3%	16%	13%	17%	85%	98%	99%	85%	98%	99%		
